Data taken from article PMC12084297, “Cytoplasmic connexin43-microtubule interactions promote glioblastoma stem-like cell maintenance and tumorigenicity” (Cell Death & Disease, 2025).

Legend:
[1] = tested on: Cx43/α-tubulin interaction; assay: STORM localization, cross-pair correlation of Cx43/α-tubulin interaction in VTC-037 GSCs; assay type: cell-based, human; settings: 50 μM, 24 h, n = 10
Description: Cells were washed once with warm PBS before fixing in 4% paraformaldehyde for 20 min at room temperature or ice-cold methanol for 5 min on ice, washed twice, and held in PBS at 4°C until immunostaining was conducted. Cells were permeabilized and blocked in 5% normal goat or donkey serum (Fisher Scientific) and 0.1% Triton X-100 in PBS for 2 h at room temperature. Primary antibodies rabbit anti-Cx43 (MilliporeSigma; C6219), mouse anti-pan Cadherin (MilliporeSigma; C1821), or mouse anti-α-tubulin (MilliporeSigma; T6199) were diluted in blocking buffer and labeling was performed overnight at 4 °C. […]
Stochastic optical reconstruction microscopy (STORM) acquisition was conducted with a Vutara 350 microscope (Bruker). […] To quantify the spatial relationship between target proteins localized by STORM, we utilized cross-pair correlation analysis. […]

LN229/GSC tumor = LN229/GSC tumor growth in mouse flank; assay type: in vivo, mouse (BALB/c nude), human LN229/GSC cells
Excerpt: Animal studies were approved by the Institutional Animal Care and Use Committee (IACUC) of Virginia Tech. Female athymic nude mice (Envigo) aged 6-8 weeks were used for the maintenance and propagation of PDX GBM22 cells. PDX GBM22 tumors were maintained by serial passage in nude mouse flanks as described previously. Briefly, tumors were harvested 14–18 days post-injection and glioblastoma cells were mechanically and enzymatically dissociated. Cells were passed through a 40 µm filter and maintained as gliospheres in DMEM/F-12 without phenol red and with L-glutamine (Thermo Fisher), supplemented with 10 ng/ml fibroblast growth factor (Thermo Fisher), 10 ng/ml epidermal growth factor (Thermo Fisher), Gibco B-27 Supplement without vitamin A (Thermo Fisher), amphotericin (Fisher), and gentamycin (Fisher). The medium was changed daily for 2 days. […] After 2 days, tumors were measured and mice were randomly separated into three groups (7 mice per group), and vehicle/control (PBS), JM2-scrambled or JM2 were administered at 300 μM intratumorally every day for 14 days. Tumors were then measured by blinded investigators and harvested for analysis (see section below). Tumor volume was calculated using the formula (length × width^2)/2. […] After 7 days, tumors were measured and mice were randomly separated into three groups; vehicle/control (PBS), JM2-scrambled, and JM2 (3 mice per group). […] Tumor sizes were measured by electronic calipers at different times by blinded investigators, and tumor volume was calculated using the formula (length × width^2)/2.
All quantification was performed on experiments repeated at least three times. […] Data were analyzed for significance using Student’s t test, one-way ANOVA with Tukey’s multiple comparisons test, and presented as mean ± SD. […] Statistical significance between experimental groups was determined using chi-square (χ²) tests within the ELDA framework. […]

[2] = LN229/GSC model, 300 µM intratumorally every other day, first 31 days, n = 3

VFFKGVKDRVKGRSD [JM2]
Cx43-microtubule interaction (cross-pair correlation) [1]: impaired this interaction in situ | Tumor growth, LN229/GSC model (LN229/GSC tumor; 300 μM intratumorally every other day, 24 days, after 33 days, n = 3 mice per group, compared to control or JM2-scrambled): significant decrease in tumor growth | t(87) statistic, rate of tumor growth, JM2 vs Control (LN229/GSC tumor; [2]): -5.081 | t(87) statistic, rate of tumor growth, JM2 vs JM2-scrambled (LN229/GSC tumor; [2]): -3.873
